Laboratory results reported in US20100063282A1, “Glucocorticoid Mimetics, Methods of Making Them, Pharmaceutical Compositions, and Uses Thereof” (BOEHRINGER INGELHEIM INTERNATIONAL GMBH, priority 2007, published 2010).

What was measured:
[1] = biological target: T1, human glucocorticoid receptor (GR) complex (Homo sapiens, UniProt P04150); test: Glucocorticoid receptor competitive binding assay (fluorescence polarization); conditions: competition with TAMRA-labeled dexamethasone, GR-containing baculovirus lysate, 1 hour at room temperature
T1 construct: made in house; host or cells: insect cells (baculovirus expression); used as crude lysate
T1 sequence (P04150 1-777): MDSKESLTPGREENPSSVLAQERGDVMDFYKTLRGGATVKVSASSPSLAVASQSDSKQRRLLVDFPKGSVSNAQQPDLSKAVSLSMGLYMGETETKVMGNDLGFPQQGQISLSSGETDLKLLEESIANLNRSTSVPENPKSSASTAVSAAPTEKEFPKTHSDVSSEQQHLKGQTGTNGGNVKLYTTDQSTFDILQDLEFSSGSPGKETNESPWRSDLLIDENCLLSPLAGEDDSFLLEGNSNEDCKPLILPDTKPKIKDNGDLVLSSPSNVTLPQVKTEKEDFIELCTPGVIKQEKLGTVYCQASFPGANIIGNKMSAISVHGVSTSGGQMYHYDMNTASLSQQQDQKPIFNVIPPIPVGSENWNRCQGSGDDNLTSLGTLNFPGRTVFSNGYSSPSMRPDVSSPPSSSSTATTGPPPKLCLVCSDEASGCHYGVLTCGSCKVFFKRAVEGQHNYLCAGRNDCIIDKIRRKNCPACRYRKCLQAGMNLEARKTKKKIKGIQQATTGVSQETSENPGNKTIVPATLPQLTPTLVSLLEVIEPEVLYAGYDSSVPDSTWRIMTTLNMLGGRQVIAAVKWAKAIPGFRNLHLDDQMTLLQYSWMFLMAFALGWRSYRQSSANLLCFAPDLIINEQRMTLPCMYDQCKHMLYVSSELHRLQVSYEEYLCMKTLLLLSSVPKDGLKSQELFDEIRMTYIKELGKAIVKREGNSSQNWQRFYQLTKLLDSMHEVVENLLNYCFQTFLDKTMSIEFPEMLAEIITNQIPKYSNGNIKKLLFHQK
Procedure: Compounds of the invention were evaluated for binding to the steroid receptor by a fluorescence polarization competitive binding assay. Detailed descriptions for preparation of recombinant glucocorticoid receptor (GR) complex used in the assay is described in U.S. Patent Application Publication No. US 2003/0017503, filed May 20, 2002, and incorporated herein by reference in its entirety. Preparation of the tetramethylrhodamine (TAMRA)-labeled dexamethasone probe was accomplished using a standard literature procedure (M. Pons et al., J. Steroid Biochem., 1985, 22, pp. 267-273).
The affinity of the probe for the steroid receptor was then determined in a titration experiment. The fluorescence polarization value of the probe in assay buffer was measured on an SLM-8100 fluorometer using the excitation and emission maximum values described above. Aliquots of expression vector lysate were added and fluorescence polarization was measured after each addition until no further change in polarization value was observed. Non-linear least squares regression analysis was used to calculate the dissociation constant of the probe from the polarization values obtained for lysate binding to the probe.
This assay uses fluorescence polarization (FP) to quantitate the ability of test compounds to compete with tetramethylrhodamine (TAMRA)-labeled dexamethasone for binding to a human glucocorticoid receptor (GR) complex prepared from an insect expression system. The assay buffer was: 10 mM TES, 50 mM KCl, 20 mM Na2MoO4.2H2O, 1.5 mM EDTA, 0.04% w/v CHAPS, 10% v/v glycerol, 1 mM dithiothreitol, pH 7.4. Test compounds were dissolved to 1 mM in neat DMSO and then further diluted to 10× assay concentration in assay buffer supplemented with 10% v/v DMSO. Test compounds were serially diluted at 10× assay concentrations in 10% DMSO-containing buffer in 96-well polypropylene plates. Binding reaction mixtures were prepared in 96-well black Dynex microtiter plates by sequential addition of the following assay components to each well: 15 μL of 10× test compound solution, 85 μL of GR-containing baculovirus lysate diluted 1:170 in assay buffer, and 50 μL of 15 nM TAMRA-labeled dexamethasone. Positive controls were reaction mixtures containing no test compound; negative controls (blanks) were reaction mixtures containing 0.7 μM to 2 μM dexamethasone. The binding reactions were incubated for 1 hour at room temperature and then read for fluorescence polarization in the LJL Analyst set to 550 nm excitation and 580 nm emission, with the Rhodamine 561 dichroic mirror installed. IC50 values were determined by iterative non-linear curve fitting of the FP signal data to a 4-parameter logistic equation.

glucocorticoid receptor = test: Glucocorticoid receptor function, one or more of the above assays; format: cell-based; conditions: in one or more of the above assays, assay not specified
Procedure: Dexamethasone, a synthetic ligand to the glucocorticoid receptor (GR), induces expression of aromatase in human foreskin fibroblast cells. The activity of aromatase is measured by the conversion of testosterone to estradiol in culture media.
Human foreskin fibroblast cells (ATCC Cat. No. CRL-2429, designation CCD112SK) are plated on 96 well plates at 50,000 cells per well 5 days before use, in Iscove's Modified Dulbecco's Media (GibcoBRL Life Technologies Cat No. 12440-053) supplemented with 10% charcoal filtered FBS (Clonetech Cat No. SH30068) and Gentamycin (GibcoBRL Life Technologies Cat. No. 15710-064). On the day of the experiment, the media in the wells is replaced with fresh media. Cells are treated with test compounds to final concentrations of 10^−5 M to 10^−8 M, and testosterone to a final concentration of 300 ng/mL. Each well has a total volume of 100 μL. Samples are made in duplicates. […] Estradiol in the supernatant is measured using ELISA kits for estradiol (made by ALPCO, obtained from American Laboratory Products Cat. No. 020-DR-2693) according to the manufacture's instruction. […] The extent of aromatase induction by test compounds is expressed as a relative percentage to dexamethasone. […]
Human foreskin fibroblast cells (ATCC Cat. No. CRL-2429) are plated on 96 well plates at 5,000 cells per well the day before use, in Iscove's Modified Dulbecco's Media (GibcoBRL Life Technologies Cat. No. 12440-053) supplemented with 10% charcoal filtered FBS (Clonetech Cat. No. SH30068) and Gentamycin (GibcoBRL Life Technologies Cat. No. 15710-064). […] IL-6 levels in the supernatants are determined by the ELISA kits for IL-6 (MedSystems Diagnostics GmbH, Vienna, Austria, Cat. No. BMS213TEN) according to manufacture's instructions. […]
H4-II-E-C3 cells were incubated overnight in 96 well plates (20,000 cells/100 μL/well) in MEM medium containing 10% heat inactivated FBS and 1% nonessential amino acids. […] After 18 hours, the cells were lysed in a buffer containing 0.1% Triton X-100 and the TAT activity was measured in a photometric assay using tyrosine and alpha-ketoglutarate as substrates. […]

| IC50 [1] [nM] | activity as an agonist of the glucocorticoid receptor function (glucocorticoid receptor) | SMILES |
| --- | --- | --- |
| ≤ 100 | shown activity as an agonist | CC[C@@H](CNc1ccc2c(cnn2-c2ccc(F)cc2)c1)NS(=O)(=O)c1c(N)cc(Cl)cc1Cl [2-Amino-4,6-dichloro-N—((S)-1-{[1-(4-fluorophenyl)-1H-indazol-5-ylamino]methyl}propyl)benzenesulfonamide] |
| ≤ 100 | – | Cc1cc(C)c(S(=O)(=O)NC(CSc2ncccc2C(F)(F)F)C(F)(F)F)c(C)c1 (centres unmarked) [2,4,6-Trimethyl-N-[2,2,2-trifluoro-1-(3-trifluoromethylpyridin-2-ylsulfanylmethyl)ethyl]benzenesulfonamide] |
| ≤ 100 | – | Cc1cc(C)c(S(=O)(=O)NC(COc2cccc3cnccc23)C(F)(F)F)c(C)c1 (centres unmarked) [2,4,6-Trimethyl-N-[2,2,2-trifluoro-1-(isoquinolin-5-yloxymethyl)ethyl]benzenesulfonamide] |
| ≤ 100 | – | CC[C@@H](CNc1ccc2c(cnn2-c2ccc(F)cc2)c1)NS(=O)(=O)c1c(C)cc(C)cc1C [N—((S)-1-{[1-(4-Fluorophenyl)-1H-indazol-5-ylamino]methyl}propyl)-2,4,6-trimethylbenzenesulfonamide] |
| ≤ 100 | – | CC[C@@H](CNc1cccc2cc[nH]c12)NS(=O)(=O)c1c(C)cc(C)cc1C [N—{(S)-1-[(1H-Indol-7-ylamino)methyl]propyl}-2,4,6-trimethylbenzenesulfonamide] |
| ≤ 100 | – | Cc1cc(C)c(S(=O)(=O)NC(CNc2cccc3ccc(C)nc23)C(F)(F)F)c(C)c1 (centres unmarked) [2,4,6-Trimethyl-N-{2,2,2-trifluoro-1-[(2-methylquinolin-8-ylamino)methyl]ethyl}benzenesulfonamide] |
| ≤ 100 | – | Cc1cc(C)c(S(=O)(=O)NC(CNc2cccc3ncccc23)C(F)(F)F)c(C)c1 (centres unmarked) [2,4,6-Trimethyl-N-[2,2,2-trifluoro-1-(quinolin-5-ylaminomethyl)ethyl]benzenesulfonamide] |
| ≤ 100 | – | Cc1cc(C)c(S(=O)(=O)NC(CSc2nc(C)cc(C(F)(F)F)c2C#N)C(F)(F)F)c(C)c1 (centres unmarked) [N-[1-(3-Cyano-6-methyl-4-trifluoromethylpyridin-2-ylsulfanylmethyl)-2,2,2-trifluoroethyl]-2,4,6-trimethylbenzenesulfonamide] |
| ≤ 100 | shown activity as an agonist | CC[C@@H](CNc1cccc2[nH]ccc12)NS(=O)(=O)c1c(N)cc(Cl)cc1Cl [2-Amino-4,6-dichloro-N—{(S)-1-[(1H-indol-4-ylamino)methyl]propyl}benzenesulfonamide] |
| ≤ 100 | – | Cc1cc(C)c(S(=O)(=O)NC(CSc2ccccn2)C(F)(F)F)c(C)c1 (centres unmarked) [2,4,6-Trimethyl-N-[2,2,2-trifluoro-1-(pyridin-2-ylsulfanylmethyl)ethyl]benzenesulfonamide] |
| ≤ 100 | – | Cc1cc(C)c(S(=O)(=O)NC(CSc2ccc([N+](=O)[O-])cn2)C(F)(F)F)c(C)c1 (centres unmarked) [2,4,6-Trimethyl-N-[2,2,2-trifluoro-1-(5-nitropyridin-2-ylsulfanylmethyl)ethyl]benzenesulfonamide] |
| ≤ 100 | shown activity as an agonist | CC[C@@H](CNc1cccc2[nH]ccc12)NS(=O)(=O)c1c(C)cc(C)cc1C [N—{(S)-1-[(1H-Indol-4-ylamino)methyl]propyl}-2,4,6-trimethylbenzenesulfonamide] |
| ≤ 100 | – | Cc1cc(C)c(S(=O)(=O)NC(COc2cccc3ncccc23)C(F)(F)F)c(C)c1 (centres unmarked) [2,4,6-Trimethyl-N-[2,2,2-trifluoro-1-(quinolin-5-yloxymethyl)ethyl]benzenesulfonamide] |
| ≤ 100 | – | Cc1cc(C)c(S(=O)(=O)NC(CNc2cccc3cnccc23)C(F)(F)F)c(C)c1 (centres unmarked) [2,4,6-Trimethyl-N-[2,2,2-trifluoro-1-(isoquinolin-5-ylaminomethyl)ethyl]benzenesulfonamide] |
